US20250339569A1, “CARBONIC ANHYDRASE IX LIGANDS” (priority 2021, published 2025)
Starred links: 1 amine or outer side, 2 acyl side, 3 side chain; linkers in the order of their positions; H or OH if unused. Positions of bridges follow the written chain, without caps; N, C: chain ends. Non-standard residues stand in square brackets, D forms with d. Residues, ends and D or L forms follow the SMILES beside them. *: point of attachment. DOTA = O=C(O)CN1CCN(CC(=O)O)CCN(CC(=O)*)CCN(CC(=O)O)CC1; Desaminotyrosyl = O=C(CCc1ccc(O)cc1)*; mXylylene = c1cc(C[*:1])cc(C[*:2])c1; NMeY = CN[C@@H](Cc1ccc(O)cc1)C(=O)O; X2 = O=C(CN1CCC(N[*:1])CC1)[*:2]; Tic = O=C(O)[C@@H]1Cc2ccccc2CN1; Aic = NC1(C(=O)O)Cc2ccccc2C1; Propanoyl(3-OH) = O=C(CCO)*; Isovaleryl = CC(C)CC(=O)*; Thp = NC1(C(=O)O)CCOCC1; βAla = NCCC(=O)O

These compounds were tested against T1, CAIX-expressing human HT-29 colorectal cancer cells (Homo sapiens, UniProt Q16790) (assay: FACS binding assay (IC50 determination, competition with tracer 3BP-2776 or 3BP-4149)). Conditions: FACS competition on HT-29 cells, Tracer ID 3BP-2776 (10 nM, biotin-labeled), 4° C., 1 hour; read-out: pIC50 category (activity) (converted).
T1 construct: CAIX-expressing human HT-29 colorectal cancer cells; host or cells: HT-29 human colorectal cancer cells
Outline: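 HT-29 cells in FACS buffer (PBS, 1% FCS) at 500.000 cells/ml were exposed to compounds competing with a labelled tracer, with biotinylated compounds detected by 1 μg/mL APC-streptavidin for 30 min on ice. APC/Cy5 median fluorescence was read by flow cytometry and IC50 derived by 4PL fit.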

`CC[C@H](C)[C@H](NC(C)=O)C(=O)N[C@@H](Cc1ccc(O)cc1)C(=O)N[C@H]1CSCc2cccc(c2)CSC[C@@H](C(N)=O)NC(=O)[C@H](CO)NC(=O)[C@H](Cc2c[nH]c3ccccc23)NC(=O)[C@H]([C@@H](C)O)NC(=O)[C@H](CC(C)C)NC(=O)[C@H](Cc2c[nH]c3ccccc23)NC(=O)[C@H](CC(=O)O)NC(=O)[C@H]2CCCN2C(=O)[C@H](CCC(=O)O)NC1=O` [3BP-3568] (Ac-IYCE[dP]DWLTWSC-NH2; linker 3-12 via mXylylene) and `CC(=O)N[C@@H](Cc1ccc(O)cc1)C(=O)N[C@H]1CSCc2cccc(c2)CSC[C@@H](C(N)=O)NC(=O)[C@H](CO)NC(=O)[C@H](Cc2c[nH]c3ccccc23)NC(=O)[C@H]([C@@H](C)O)NC(=O)[C@H](CC(C)C)NC(=O)[C@H](Cc2c[nH]c3ccccc23)NC(=O)[C@H](CC(=O)O)NC(=O)[C@H]2CCCN2C(=O)[C@H](CCC(=O)O)NC1=O` [3BP-3729] (Ac-YCE[dP]DWLTWSC-NH2; linker 2-11 via mXylylene) cannot be ordered by IC50: under 10 nM for the first, under 10 nM for the second.

`CC(C)CC(=O)N[C@@H](Cc1ccc(O)cc1)C(=O)N[C@H]1CSCc2cccc(c2)CSC[C@@H](C(N)=O)NC(=O)[C@H](CO)NC(=O)[C@H](Cc2c[nH]c3ccccc23)NC(=O)[C@H]([C@@H](C)O)NC(=O)[C@H](CC(C)C)NC(=O)[C@H](Cc2c[nH]c3ccccc23)NC(=O)[C@H](CC(=O)O)NC(=O)[C@H]2CCCN2C(=O)[C@H](CCC(=O)O)NC1=O` [3BP-3569] (Isovaleryl-YCE[dP]DWLTWSC-NH2; linker 2-11 via mXylylene) and `CC(C)C[C@@H]1NC(=O)[C@H](Cc2c[nH]c3ccccc23)NC(=O)[C@H](CC(=O)O)NC(=O)[C@H]2CCCN2C(=O)[C@H](CCC(=O)O)NC(=O)[C@@H](NC(=O)[C@H](Cc2ccc(O)cc2)NC(=O)CCO)CSCc2cccc(c2)CSC[C@@H](C(N)=O)NC(=O)[C@H](CO)NC(=O)[C@H](Cc2c[nH]c3ccccc23)NC(=O)[C@H]([C@@H](C)O)NC1=O` [3BP-3730] ({Propanoyl(3-OH)}-YCE[dP]DWLTWSC-NH2; linker 2-11 via mXylylene) cannot be ordered by IC50: under 10 nM for the first, under 10 nM for the second.

`CC(=O)N[C@H](C(=O)N[C@@H](Cc1ccccc1)C(=O)N[C@H]1CSCc2cccc(c2)CSC[C@@H](C(N)=O)NC(=O)[C@H](CO)NC(=O)[C@H](Cc2c[nH]c3ccccc23)NC(=O)[C@H]([C@@H](C)O)NC(=O)[C@H](CC(C)C)NC(=O)[C@H](Cc2c[nH]c3ccccc23)NC(=O)[C@H](CC(=O)O)NC(=O)[C@H]2CCCN2C(=O)[C@H](CCC(=O)O)NC1=O)C(C)C` [3BP-3570] (Ac-VFCE[dP]DWLTWSC-NH2; linker 3-12 via mXylylene) and `CC(=O)N[C@H](C(=O)N[C@@H](CO)C(=O)N[C@H]1CSCc2cccc(c2)CSC[C@@H](C(N)=O)NC(=O)[C@H](CO)NC(=O)[C@H](Cc2c[nH]c3ccccc23)NC(=O)[C@H]([C@@H](C)O)NC(=O)[C@H](CC(C)C)NC(=O)[C@H](Cc2c[nH]c3ccccc23)NC(=O)[C@H](CC(=O)O)NC(=O)[C@H]2CCCN2C(=O)[C@H](CCC(=O)O)NC1=O)C(C)C` [3BP-3571] (Ac-VSCE[dP]DWLTWSC-NH2; linker 3-12 via mXylylene) cannot be ordered by IC50: under 10 nM for the first, under 10 nM for the second.

Compared with `CC(=O)N[C@H](C(=O)N1Cc2ccccc2C[C@H]1C(=O)N[C@H]1CSCc2cccc(c2)CSC[C@@H](C(N)=O)NC(=O)[C@H](CO)NC(=O)[C@H](Cc2c[nH]c3ccccc23)NC(=O)[C@H]([C@@H](C)O)NC(=O)[C@H](CC(C)C)NC(=O)[C@H](Cc2c[nH]c3ccccc23)NC(=O)[C@H](CC(=O)O)NC(=O)[C@H]2CCCN2C(=O)[C@H](CCC(=O)O)NC1=O)C(C)C` [3BP-3572] (Ac-V[Tic]CE[dP]DWLTWSC-NH2; linker 3-12 via mXylylene), `CC(=O)N[C@H](C(=O)N(C)[C@@H](Cc1ccc(O)cc1)C(=O)N[C@H]1CSCc2cccc(c2)CSC[C@@H](C(N)=O)NC(=O)[C@H](CO)NC(=O)[C@H](Cc2c[nH]c3ccccc23)NC(=O)[C@H]([C@@H](C)O)NC(=O)[C@H](CC(C)C)NC(=O)[C@H](Cc2c[nH]c3ccccc23)NC(=O)[C@H](CC(=O)O)NC(=O)[C@H]2CCCN2C(=O)[C@H](CCC(=O)O)NC1=O)C(C)C` [3BP-3589] (Ac-V[NMeY]CE[dP]DWLTWSC-NH2; linker 3-12 via mXylylene) is lower in IC50: 10 to 79.4 nM for the first, under 10 nM for the second.

`CC(C)[C@H](NC(=O)CN1CCC(NC(=O)CN2CCN(CC(=O)O)CCN(CC(=O)O)CCN(CC(=O)O)CC2)CC1)C(=O)N[C@@H](Cc1ccc(O)cc1)C(=O)N[C@H]1CSCc2cccc(c2)CSC[C@@H](C(N)=O)NC(=O)[C@H](CO)NC(=O)[C@H](Cc2c[nH]c3ccccc23)NC(=O)[C@H]([C@@H](C)O)NC(=O)C2(CCOCC2)NC(=O)[C@H](Cc2c[nH]c3ccccc23)NC(=O)[C@H](CC(=O)O)NC(=O)[C@H]2CCCN2C(=O)[C@H](CCC(=O)O)NC1=O` [3BP-3585] ({DOTA}-[X2]VYCE[dP]DW[Thp]TWSC-NH2; linker 4-13 via mXylylene) and `CC(C)[C@H](NC(=O)CN1CCC(NC(=O)CN2CCN(CC(=O)O)CCN(CC(=O)O)CCN(CC(=O)O)CC2)CC1)C(=O)N[C@@H](Cc1ccc(O)cc1)C(=O)N[C@H]1CSCc2cccc(c2)CSC[C@@H](C(N)=O)NC(=O)[C@H](CO)NC(=O)[C@H](Cc2c[nH]c3ccccc23)NC(=O)[C@H]([C@@H](C)O)NC(=O)C2(Cc3ccccc3C2)NC(=O)[C@H](Cc2c[nH]c3ccccc23)NC(=O)[C@H](CC(=O)O)NC(=O)[C@H]2CCCN2C(=O)[C@H](CCC(=O)O)NC1=O` [3BP-3586] ({DOTA}-[X2]VYCE[dP]DW[Aic]TWSC-NH2; linker 4-13 via mXylylene) cannot be ordered by IC50: under 10 nM for the first, under 10 nM for the second.

`CC(=O)N[C@H](C(=O)N[C@@H](CCCNC(=N)N)C(=O)N[C@H]1CSCc2cccc(c2)CSC[C@@H](C(N)=O)NC(=O)[C@H](CO)NC(=O)[C@H](Cc2c[nH]c3ccccc23)NC(=O)[C@H]([C@@H](C)O)NC(=O)[C@H](CC(C)C)NC(=O)[C@H](Cc2c[nH]c3ccccc23)NC(=O)[C@H](CC(=O)O)NC(=O)[C@H]2CCCN2C(=O)[C@H](CCC(=O)O)NC1=O)C(C)C` [3BP-3588] (Ac-VRCE[dP]DWLTWSC-NH2; linker 3-12 via mXylylene) and `CC(C)CC(=O)N[C@@H](CCC(=O)O)C(=O)N[C@H]1CSCc2cccc(c2)CSC[C@@H](C(N)=O)NC(=O)[C@H](CO)NC(=O)[C@H](Cc2c[nH]c3ccccc23)NC(=O)[C@H]([C@@H](C)O)NC(=O)[C@H](CC(C)C)NC(=O)[C@H](Cc2c[nH]c3ccccc23)NC(=O)[C@H](CC(=O)O)NC(=O)[C@H]2CCCN2C(=O)[C@H](CCC(=O)O)NC1=O` [3BP-3728] (Isovaleryl-ECE[dP]DWLTWSC-NH2; linker 2-11 via mXylylene) cannot be ordered by IC50: under 10 nM for the first, under 10 nM for the second.

`CC(C)C[C@@H]1NC(=O)[C@H](Cc2c[nH]c3ccccc23)NC(=O)[C@H](CO)NC(=O)[C@H]2CCCN2C(=O)[C@H](CCC(=O)O)NC(=O)[C@@H](NC(=O)[C@H](Cc2ccc(O)cc2)NC(=O)[C@@H](NC(=O)CN2CCC(NC(=O)CN3CCN(CC(=O)O)CCN(CC(=O)O)CCN(CC(=O)O)CC3)CC2)C(C)C)CSCc2cccc(c2)CSC[C@@H](C(N)=O)NC(=O)[C@H](CO)NC(=O)[C@H](Cc2c[nH]c3ccccc23)NC(=O)[C@H]([C@@H](C)O)NC1=O` [3BP-3595] ({DOTA}-[X2]VYCE[dP]SWLTWSC-NH2; linker 4-13 via mXylylene) and `CC(C)C[C@@H]1NC(=O)[C@H](Cc2ccccc2)NC(=O)[C@H](CC(=O)O)NC(=O)[C@H]2CCCN2C(=O)[C@H](CCC(=O)O)NC(=O)[C@@H](NC(=O)[C@H](Cc2ccc(O)cc2)NC(=O)[C@@H](NC(=O)CN2CCC(NC(=O)CN3CCN(CC(=O)O)CCN(CC(=O)O)CCN(CC(=O)O)CC3)CC2)C(C)C)CSCc2cccc(c2)CSC[C@@H](C(N)=O)NC(=O)[C@H](CO)NC(=O)[C@H](Cc2c[nH]c3ccccc23)NC(=O)[C@H]([C@@H](C)O)NC1=O` [3BP-3596] ({DOTA}-[X2]VYCE[dP]DFLTWSC-NH2; linker 4-13 via mXylylene) cannot be ordered by IC50: under 10 nM for the first, under 10 nM for the second.

`CC(C)C[C@@H]1NC(=O)[C@H](Cc2c[nH]c3ccccc23)NC(=O)[C@H](CC(=O)O)NC(=O)[C@H]2CCCN2C(=O)[C@H](CCC(=O)O)NC(=O)[C@@H](NC(=O)[C@H](Cc2ccc(O)cc2)NC(=O)[C@@H](NC(=O)CN2CCC(NC(=O)CN3CCN(CC(=O)O)CCN(CC(=O)O)CCN(CC(=O)O)CC3)CC2)C(C)C)CSCc2cccc(c2)CSC[C@@H](C(N)=O)NC(=O)[C@H](CO)NC(=O)[C@H](Cc2c[nH]c3ccccc23)NC(=O)[C@H](Cc2c[nH]cn2)NC1=O` [3BP-3597] ({DOTA}-[X2]VYCE[dP]DWLHWSC-NH2; linker 4-13 via mXylylene) and `CC(C)CC(=O)N[C@@H](CC(=O)O)C(=O)N[C@H]1CSCc2cccc(c2)CSC[C@@H](C(N)=O)NC(=O)[C@H](CO)NC(=O)[C@H](Cc2c[nH]c3ccccc23)NC(=O)[C@H]([C@@H](C)O)NC(=O)[C@H](CC(C)C)NC(=O)[C@H](Cc2c[nH]c3ccccc23)NC(=O)[C@H](CC(=O)O)NC(=O)[C@H]2CCCN2C(=O)[C@H](CCC(=O)O)NC1=O` [3BP-3727] (Isovaleryl-DCE[dP]DWLTWSC-NH2; linker 2-11 via mXylylene) cannot be ordered by IC50: under 10 nM for the first, under 10 nM for the second.

First: CC(=O)N[C@H](C(=O)N[C@@H](Cc1ccc(O)cc1)C(=O)N[C@@H]1CSCc2cccc(c2)CSC[C@@H](C(N)=O)NC(=O)[C@H](CO)NC(=O)[C@H](Cc2c[nH]c3ccccc23)NC(=O)[C@H]([C@@H](C)O)NC(=O)[C@H](CC(C)C)NC(=O)[C@H](Cc2c[nH]c3ccccc23)NC(=O)CCNC1=O)C(C)C [3BP-3604] (Ac-VY[dC][βAla]WLTWSC-NH2; linker 3-10 via mXylylene)
Second: CC(C)C[C@@H]1NC(=O)[C@H](Cc2c[nH]c3ccccc23)NC(=O)[C@H](CC(=O)O)NC(=O)[C@H]2CCCN2C(=O)[C@H](CCC(=O)O)NC(=O)[C@@H](NC(=O)CCc2ccc(O)cc2)CSCc2cccc(c2)CSC[C@@H](C(N)=O)NC(=O)[C@H](CO)NC(=O)[C@H](Cc2c[nH]c3ccccc23)NC(=O)[C@H]([C@@H](C)O)NC1=O [3BP-3731] (Desaminotyrosyl-CE[dP]DWLTWSC-NH2; linker 1-10 via mXylylene)
The IC50 of the first is higher: 100 to 794 nM for the first, 10 to 79.4 nM for the second.
